Like-named read-outs stand apart in the source and are kept apart here.
Columns and labels:
Format in all cases: cell-based, Escherichia coli
[1] = tested on: E. coli screening strain DR1234; design: unit not given here
Procedure: (§1) The screening strain, DR1234, was established after all desired drug-resistant genes listed in Table 5 had been delivered into the parent E. coli strain, MG1655, by methods described above. Its level of drug resistance was analyzed by the standard minimum inhibitory concentration (MIC) assay in MHB liquid medium (Chantot, et al., 1986, “Antibacterial activity of roxithromycin: a laboratory evaluation,” J. Antibiot, 39(5):660-8) and the result was summarized in Table 7.

[2] = tested on: E. coli screening strain CM166; design: unit not given here; settings: Table 9, MHB medium
Excerpt: (§2) The level of drug resistance of CM166 was estimated by MIC assay carried out in MHB liquid medium and the results were summarized in Table 9. CM166 is resistant to antibacterial agents whose resistant genes have been incorporated into the strain, but not to other antibacterial drugs whose resistant genes are not incorporated.

[3] = tested on: E. coli screening strain CM435; design: Minimal inhibitory concentrations (MIC90) CM435: unit not given here; settings: Table 13, MHB medium
[4] = tested on: E. coli screening strain CM400; design: unit not given here; settings: Table 13, MHB medium
Procedure: (§3) The level of drug resistance of screening strains CM400 and CM435 was evaluated by standard MIC assay in MHB liquid medium and the results are summarized in Table 13. According to the MIC results, CM435 is hypersensitive to Bleomycin, Daunorucibin, Coumermycin A1 and Erythromycin. Screening strain CM435 and others, which are hypersensitive to certain types of antimicrobial agents, are advantageous in detecting bioactive compounds with low concentration in the screening system.

[5] = tested on: E. coli screening strain CM242; design: unit not given here; settings: second Table 12, MHB medium
Procedure: (§4) The level of drug resistance of these screening strains (both intermediates and finals) was evaluated by standard MIC assay in MHB liquid medium and the result of Strain CM242 is summarized in Table 12.

[6] = tested on: E. coli screening strain DR1212; design: unit not given here
Procedure: (§5) The level of drug-resistance of screening strain DR1212 was analyzed by standard MIC assay in MHB liquid medium and the result was summarized in Table 11. Similar to screening strains, DR1234 and CM166, DR1212 is also resistant to drugs whose resistant genes have been introduced.

E. coli MG1655 = tested on: E. coli MG1655; design: unit not given here
Procedure: as §1, §2, §5, §4, §3

Row | Compound | Minimal inhibitory concentrations (MIC90) DR1234 [1] | Minimal inhibitory concentrations (MIC90) CM166 [2] | Minimal inhibitory concentrations (MIC90) CM435 [3] | Minimal inhibitory concentrations (MIC90) CM400 [4] | Minimal inhibitory concentrations (MIC90) CM242 [5] | Minimal inhibitory concentrations (MIC90) DR1212 [6] | Minimal inhibitory concentrations (MIC90) DR1234 ([1]; Table 7, MHB medium) | Minimal inhibitory concentrations (MIC90) MG1655 (E. coli MG1655; Table 7, MHB medium) | Minimal inhibitory concentrations (MIC90) MG1655 (E. coli MG1655; Table 9, MHB medium) | Minimal inhibitory concentrations (MIC90) MG1655 (E. coli MG1655; Table 11, MHB medium) | Minimal inhibitory concentrations (MIC90) MG1655 (E. coli MG1655; Table 13, MHB medium) | Minimal inhibitory concentrations (MIC90) MG1655 (E. coli MG1655; second Table 12, MHB medium) | Minimal inhibitory concentrations (MIC90) DR1212 ([6]; Table 11, MHB medium)
1 | NC[C@H]1O[C@H](O[C@H]2[C@H](O)[C@@H](O[C@H]3O[C@H](CO)[C@@H](O)[C@H](N)[C@H]3O)[C@H](N)C[C@@H]2N)[C@H](O)[C@@H](O)[C@@H]1O [Kanamycin] | >400 | >400 | >64 | >64 | >400 | 400 | – | – | – | – | – | – | –
2 | CCN[C@@H]1C[C@H](N)[C@@H](O[C@H]2OC(CN)=CC[C@H]2N)[C@H](O)[C@H]1O[C@H]1OC[C@](C)(O)[C@H](NC)[C@H]1O [Netilmycin] | – | 400 | 64 | >64 | 200 | – | 200 | 1.6 | 1.6 | 1.6 | 0.5 | 1.6 | 400
3 | CO[C@H]1/C=C/O[C@@]2(C)Oc3c(C)c(O)c4c(O)c(cc(O)c4c3C2=O)NC(=O)/C(C)=C\C=C\[C@H](C)[C@H](O)[C@@H](C)[C@@H](O)[C@@H](C)[C@H](OC(C)=O)[C@@H]1C [Rifamycin] | – | – | 16 | >64 | – | – | – | – | – | – | 16 | – | –
4 | [H]/N=C(/N)N[C@H]1[C@H](O)[C@@H](O)[C@H](O[C@@H]2O[C@@H](C)[C@](O)(C=O)[C@H]2O[C@@H]2O[C@@H](CO)[C@H](O)[C@@H](O)[C@@H]2NC)[C@@H](N/C(N)=N\[H])[C@@H]1O [Streptomycin] | – | >400 | >64 | >64 | >400 | – | >400 | 3.2 | 3.2 | 3.2 | 4 | 3.2 | >400
5 | CN(C)[C@@H]1C(O)=C(C(N)=O)C(=O)[C@@]2(O)C(O)=C3C(=O)c4c(O)cccc4[C@@](C)(O)[C@H]3C[C@@H]12 [Tetracycline] | 100 | 100 | 64 | >64 | >400 | 100 | – | 0.4-3.2 | 0.4-3.2 | 0.4-3.2 | 2 | 0.4-3.2 | –
6 | NC[C@H]1O[C@H](O[C@H]2[C@H](O)[C@@H](O[C@H]3O[C@H](CO)[C@@H](O)[C@H](N)[C@H]3O)[C@H](N)C[C@@H]2N)[C@H](N)C[C@@H]1O [Tobramycin] | – | >400 | – | – | 100 | – | 50 | 0.4 | 0.4 | 0.4 | – | 0.4 | 25
7 | Actinomycin C | – | 50 | >256 | >256 | 200 | – | 100 | 50 | 50 | 50 | 256 | 50 | 25.0
